Data as given in patent US20240199605A1, “SMALL MOLECULAR INHIBITORS OF NF-kB INDUCING KINASE” (Janssen Pharmaceutica NV, priority 2019, published 2024).

How the values were obtained:
[1] = target: recombinant human NF-kappaB-inducing kinase (NIK/MAP3K14) (Homo sapiens (Human), UniProt Q99558); assay: Inhibition of auto-phosphorylation of recombinant human NIK/MAP3K14 (AlphaScreen); format: biochemical; details: NIK auto-phosphorylation, 5 μM ATP, 1 nM NIK, 2 h at 25° C.; average of values
How it was run: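 GST-tagged NIK (1 nM) auto-phosphorylated with 5 μM ATP for 2 h at 25° C. in 50 mM Tris pH 7.5, 5 mM MgCl2, 1 mM EGTA, 1 mM DTT, 0.1 mM Na3VO4, 0.01% Tween 20 (0.7% DMSO). Detected by AlphaScreen via anti-phospho-IKK Ser176/180 antibody; IC50 from sigmoidal fit of % inhibition versus log concentration.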

[2] = system: p-IKKα levels in L363 (NIK translocated multiple myeloma) cells; assay: Effect of compounds on p-IKKα levels in L363 cells (AlphaLISA SureFire Ultra); format: cell-based, human; details: Homo sapiens, L-363, 6 h, BAFF stimulated, MG132, 6 h, average of values, read-out: Assay 2 IC50
How it was run: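 Inhibition of p-IKKα (Ser176/180) read by AlphaLISA after 6 h, 37 °C compound exposure (11-point 1:3 series, 0.3% DMSO) of L363 cells pre-incubated overnight ± 250 ng/ml BAFF and plated ± BAFF ± 10 μM MG132. Normalised to BAFF/MG132/DMSO and unstimulated controls; IC50 by sigmoidal fitting, duplicates.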

Sequence of recombinant human NF-kappaB-inducing kinase (NIK/MAP3K14) (Q99558 whole entry): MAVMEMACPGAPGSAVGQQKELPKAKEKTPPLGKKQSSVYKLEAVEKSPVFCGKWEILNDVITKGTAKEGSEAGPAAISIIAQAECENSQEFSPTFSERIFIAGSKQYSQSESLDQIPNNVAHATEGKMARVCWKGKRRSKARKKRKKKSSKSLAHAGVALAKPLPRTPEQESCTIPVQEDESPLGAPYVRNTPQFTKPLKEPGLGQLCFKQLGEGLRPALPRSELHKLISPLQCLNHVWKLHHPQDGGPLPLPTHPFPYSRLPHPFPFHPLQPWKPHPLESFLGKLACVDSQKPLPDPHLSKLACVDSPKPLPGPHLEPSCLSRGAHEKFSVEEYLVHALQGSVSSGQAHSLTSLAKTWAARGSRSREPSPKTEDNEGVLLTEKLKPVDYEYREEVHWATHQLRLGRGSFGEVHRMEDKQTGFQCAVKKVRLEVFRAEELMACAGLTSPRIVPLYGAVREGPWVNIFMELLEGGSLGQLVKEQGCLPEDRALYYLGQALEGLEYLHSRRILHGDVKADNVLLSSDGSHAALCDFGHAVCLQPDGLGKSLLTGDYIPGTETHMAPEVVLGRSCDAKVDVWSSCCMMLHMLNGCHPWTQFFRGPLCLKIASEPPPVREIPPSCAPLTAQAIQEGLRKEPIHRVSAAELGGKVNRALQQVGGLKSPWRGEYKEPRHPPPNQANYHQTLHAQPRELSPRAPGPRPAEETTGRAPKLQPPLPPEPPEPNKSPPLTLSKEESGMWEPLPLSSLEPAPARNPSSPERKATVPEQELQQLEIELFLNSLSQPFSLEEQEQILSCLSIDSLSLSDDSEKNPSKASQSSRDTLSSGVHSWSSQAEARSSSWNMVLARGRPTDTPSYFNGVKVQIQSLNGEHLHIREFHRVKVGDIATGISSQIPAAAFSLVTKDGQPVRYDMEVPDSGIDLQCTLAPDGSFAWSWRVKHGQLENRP

Row | IC50 [1] | IC50 [2] | Compound
1 | 44 nM | > 5000 nM | [2H]c1nc(N)c2nc(-c3cccc(C#C[C@]4(O)CCN(C)C4=O)c3)cc(C3CCNCC3)c2n1 [Example 287, (R)-3-((3-(4-Amino-8-(piperidin-4-yl)pyrido[3,2-d]pyrimidin-6-yl-2-d)phenyl)ethynyl)-3-hydroxy-1-methylpyrrolidin-2-one]
2 | 170 nM | > 5000 nM | CN1CC[C@@](O)(C#Cc2cccc(-c3ccc4ncnc(C(F)(F)F)c4n3)c2)C1=O [Example 278, (R)-3-Hydroxy-1-methyl-3-((3-(4-(trifluoromethyl)pyrido[3,2-d]pyrimidin-6-yl)phenyl)ethynyl)pyrrolidin-2-one]
3 | 2.2 nM | 4.2 nM | [2H]c1nc(N)c2nc(-c3cccc(C#C[C@]4(O)CCN(C)C4=O)c3)nc(C)c2n1 [Example 168, (R)-3-((3-(8-Amino-4-methylpyrimido[5,4-d]pyrimidin-2-yl-6-d)phenyl)ethynyl)-3-hydroxy-1-methylpyrrolidin-2-one]
4 | ≤ 0.5 nM | 11 nM | CN1CC[C@@](O)(C#Cc2cccc(-c3ncc4c(I)cnc(N)c4n3)c2)C1=O [Example 102, (R)-3-((3-(8-Amino-5-iodopyrido[3,4-d]pyrimidin-2-yl)phenyl)ethynyl)-3-hydroxy-1-methylpyrrolidin-2-one]
5 | ≤ 0.5 nM | 21 nM | Cc1cnc(N)c2nc(-c3cccc(C#C[C@]4(O)CCN(C)C4=O)c3)ccc12 [Example 120, (R)-3-[2-[3-(8-Amino-5-methyl-1,7-naphthyridin-2-yl)phenyl]ethynyl]-3-hydroxy-1-methyl-pyrrolidin-2-one]
6 | ≤ 0.5 nM | 3.6 nM | CN1CC[C@@](O)(C#Cc2cccc(-c3cc(-c4cccs4)c4ncnc(N)c4n3)c2)C1=O [Example 311, (R)-3-((3-(4-Amino-8-(thiophen-2-yl)pyrido[3,2-d]pyrimidin-6-yl)phenyl)ethynyl)-3-hydroxy-1-methylpyrrolidin-2-one]
7 | 0.8 nM | 11 nM | CN1CC[C@@](O)(C#Cc2cccc(-c3cc(-c4ccco4)c4ncnc(N)c4n3)c2)C1=O [Example 312, (R)-3-((3-(4-Amino-8-(furan-2-yl)pyrido[3,2-d]pyrimidin-6-yl)phenyl)ethynyl)-3-hydroxy-1-methylpyrrolidin-2-one]
8 | 350 nM | 4150 nM | CN1CC[C@](O)(C#Cc2cccc(-c3cc(C4CCOCC4)c4ncnc(N)c4n3)c2)C1=O [Example 256, (S)-3-((3-(4-Amino-8-(tetrahydro-2H-pyran-4-yl)pyrido[3,2-d]pyrimidin-6-yl)phenyl)ethynyl)-3-hydroxy-1-methylpyrrolidin-2-one]

Second part, the compound before the results:

Row | Compound | IC50 [1] | IC50 [2]
9 | Cc1ccc(C#CC2(O)CCCC2)cc1-c1nc2c(N)ncnc2s1 [Example 185, 1-[2-[3-(7-Aminothiazolo[5,4-d]pyrimidin-2-yl)-4-methyl-phenyl]ethynyl]cyclopentanol] | 11 nM | 1520 nM
10 | CC(C)(O)C#Cc1cccc(-c2ncc3ccnc(N)c3n2)c1 [Example 35, 4-[3-(8-Aminopyrido[3,4-d]pyrimidin-2-yl)phenyl]-2-methyl-but-3-yn-2-ol] | 15 nM | 700 nM
11 | CN1CC[C@@](O)(C#Cc2cccc(-c3nc(N4CCOCC4)c4ccnc(N)c4n3)c2)C1=O [Example 57, (R)-3-((3-(8-Amino-4-morpholinopyrido[3,4-d]pyrimidin-2-yl)phenyl)ethynyl)-3-hydroxy-1-methylpyrrolidin-2-one] | 1.3 nM | 35 nM
12 | Cc1nc(N)c2nc(-c3cccc(C#C[C@]4(O)C[C@H](C)N(C)C4=O)c3)ccc2n1 [Example 268, (3R,5S)-3-((3-(4-Amino-2-methylpyrido[3,2-d]pyrimidin-6-yl)phenyl)ethynyl)-3-hydroxy-1,5-dimethylpyrrolidin-2-one] | 65 nM | 585 nM
13 | CN1CC[C@@](O)(C#Cc2cccc(-c3ccc4nc(CF)nc(N)c4n3)c2)C1=O [Example 170, (R)-3-((3-(4-Amino-2-(fluoromethyl)pyrido[3,2-d]pyrimidin-6-yl)phenyl)ethynyl)-3-hydroxy-1-methylpyrrolidin-2-one] | 0.8 nM | 22 nM
14 | Cc1cnc(N)c2nc(-c3cccc(C#C[C@]4(O)CCn5ccnc54)c3)ncc12 [Example 86, (R)-7-[2-[3-(8-Amino-5-methyl-pyrido[3,4-d]pyrimidin-2-yl)phenyl]ethynyl]-5,6-dihydropyrrolo[1,2-a]imidazol-7-ol] | ≤ 0.5 nM | 7.7 nM
15 | Nc1nccc2cnc(-c3cccc(C#C[C@@]4(O)CCn5ccnc54)c3)nc12 [Example 64, (S)-7-[2-[3-(8-Aminopyrido[3,4-d]pyrimidin-2-yl)phenyl]ethynyl]-5,6-dihydropyrrolo[1,2-a]imidazol-7-ol] | 31 nM | 730 nM
16 | Cc1ccc(C#C[C@]2(O)CCn3ccnc32)cc1-c1nc2c(N)ncnc2s1 [Example 183, (R)-7-[2-[3-(7-Aminothiazolo[5,4-d]pyrimidin-2-yl)-4-methyl-phenyl]ethynyl]-5,6-dihydropyrrolo[1,2-a]imidazol-7-ol] | ≤ 0.5 nM | 6.6 nM
17 | Cc1ccc(C#C[C@]2(O)CCN(C)C2=O)cc1N1CCc2ncnc(N)c2C1 [Example 220, (R)-3-((3-(4-Amino-7,8-dihydropyrido[4,3-d]pyrimidin-6(5H)-yl)-4-methylphenyl)ethynyl)-3-hydroxy-1-methylpyrrolidin-2-one] | 1.3 nM | 65 nM
18 | O=c1[nH]ccc2cnc(-c3cccc(C#CC4(O)CCc5cccnc54)c3)nc12 (stereo in doubt) [Example 47, (R)-2-[3-[2-(7-Hydroxy-5,6-dihydrocyclopenta[b]pyridin-7-yl)ethynyl]phenyl]-7H-pyrido[3,4-d]pyrimidin-8-one] | 42 nM | 1600 nM
19 | CN1CC[C@@](O)(C#Cc2cccc(-c3ccc4[nH]nc(N)c4c3)c2)C1=O [Example 174, (R)-3-[2-[3-(3-Amino-1H-indazol-5-yl)phenyl]ethynyl]-3-hydroxy-1-methyl-pyrrolidin-2-one] | 830 nM | > 5000 nM
20 | C[C@@](O)(C#Cc1cccc(-c2ccc3ccnc(N)c3n2)c1)c1nccs1 [Example 90, (R)-4-[3-(8-Amino-1,7-naphthyridin-2-yl)phenyl]-2-thiazol-2-yl-but-3-yn-2-ol] | ≤ 0.5 nM | 70 nM
21 | Cc1nc(N)c2nc(-c3cc(C#C[C@]4(O)CCN(C)C4=O)ccc3C)ccc2n1 [Example 150, (R)-3-((3-(4-Amino-2-methylpyrido[3,2-d]pyrimidin-6-yl)-4-methylphenyl)ethynyl)-3-hydroxy-1-methylpyrrolidin-2-one] | 4.7 nM | 320 nM
22 | Cc1ccc(-c2nc3c(N)ncnc3s2)cc1C#C[C@]1(O)CCN(C)C1=O [Example 152, (R)-3-((5-(7-Aminothiazolo[5,4-d]pyrimidin-2-yl)-2-methylphenyl)ethynyl)-3-hydroxy-1-methylpyrrolidin-2-one] | 3.8 nM | 200 nM
23 | CN1CC[C@@](O)(C#Cc2cccc(-c3ncc4c(CC(C)(C)C)cnc(N)c4n3)c2)C1=O [Example 151, (R)-3-((3-(8-Amino-5-neopentylpyrido[3,4-d]pyrimidin-2-yl)phenyl)ethynyl)-3-hydroxy-1-methylpyrrolidin-2-one] | 0.7 nM | 28 nM
